Reference: ChEMBL document CHEMBL1156465, “Structures of Mycobacterium tuberculosis 1-deoxy-D-xylulose-5-phosphate reductoisomerase provide new insights into catalysis” (J Biol Chem, 2007)

Test: Inhibition of Escherichia coli DXR by spectrophotometric method

For `O=CN(O)CCCP(=O)(O)O` [FOSMIDOMYCIN], the IC50 was 30 nM.
